# The source made the active and inactive calls.
# Target: Cytochrome P450 2C19 (Homo sapiens, UniProt P33261)
# Assay: Cytochrome panel assay with activity outcomes. Panel member name: p450-cyp2c19 Compounds with AC50 equal or less than 10 uM are considered active
# Assay type: functional
# Conditions: read-out: AC50
# Sequence of Cytochrome P450 2C19 (P33261 whole entry): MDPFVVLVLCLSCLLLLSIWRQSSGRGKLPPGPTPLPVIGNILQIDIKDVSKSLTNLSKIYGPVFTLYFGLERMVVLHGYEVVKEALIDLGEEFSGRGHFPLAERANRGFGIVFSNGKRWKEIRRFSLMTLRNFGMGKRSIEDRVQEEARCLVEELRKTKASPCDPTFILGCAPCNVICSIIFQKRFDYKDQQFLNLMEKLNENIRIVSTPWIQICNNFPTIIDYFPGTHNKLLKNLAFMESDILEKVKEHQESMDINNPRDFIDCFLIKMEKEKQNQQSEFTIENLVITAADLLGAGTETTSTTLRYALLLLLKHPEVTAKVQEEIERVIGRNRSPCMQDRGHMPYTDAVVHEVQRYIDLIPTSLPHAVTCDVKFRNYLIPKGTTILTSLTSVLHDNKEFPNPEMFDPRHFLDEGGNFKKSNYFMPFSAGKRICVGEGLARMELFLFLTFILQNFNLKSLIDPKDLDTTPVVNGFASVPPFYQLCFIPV
row,SMILES,AC50
1,Cc1ccc2nc(-c3ccccc3)c(CN(C)C)c(O)c2c1,20 µM (inconclusive)
2,O=C(O)/C=C/c1cn(-c2ncc(C(F)(F)F)cc2Cl)c2ccccc12,14.1 µM (inconclusive)
3,CCCNC(=O)OC[C@@H]1O[C@H](CCO/N=C\c2ccc(C(=O)N3[C@H](c4ccc(C)cc4)[C@@H](C)CC[C@H]3C(=O)OC)cc2)C=C[C@@H]1Oc1ccc(OC)cc1,1.26 µM (inconclusive)
4,C[n+]1c(/C=C/c2ccc(O)c3ncccc23)[se]c2ccccc21,3.98 µM (inconclusive)

# The remaining lines, values ahead:
row,AC50,SMILES
1,39.8 µM (inconclusive),Cc1ccc(C)c(C(=O)CN2C3=NCCCN3c3ccccc32)c1
2,15.8 µM (inconclusive),O=C(NCC1CCCO1)c1ccc2c(=O)n(Cc3ccco3)c(SCC(=O)N3CCCC3)nc2c1 (stereo not given)

# Target: T1, Heat shock factor protein 1 (Mus musculus, UniProt P38532)
# T1 sequence (P38532 whole entry): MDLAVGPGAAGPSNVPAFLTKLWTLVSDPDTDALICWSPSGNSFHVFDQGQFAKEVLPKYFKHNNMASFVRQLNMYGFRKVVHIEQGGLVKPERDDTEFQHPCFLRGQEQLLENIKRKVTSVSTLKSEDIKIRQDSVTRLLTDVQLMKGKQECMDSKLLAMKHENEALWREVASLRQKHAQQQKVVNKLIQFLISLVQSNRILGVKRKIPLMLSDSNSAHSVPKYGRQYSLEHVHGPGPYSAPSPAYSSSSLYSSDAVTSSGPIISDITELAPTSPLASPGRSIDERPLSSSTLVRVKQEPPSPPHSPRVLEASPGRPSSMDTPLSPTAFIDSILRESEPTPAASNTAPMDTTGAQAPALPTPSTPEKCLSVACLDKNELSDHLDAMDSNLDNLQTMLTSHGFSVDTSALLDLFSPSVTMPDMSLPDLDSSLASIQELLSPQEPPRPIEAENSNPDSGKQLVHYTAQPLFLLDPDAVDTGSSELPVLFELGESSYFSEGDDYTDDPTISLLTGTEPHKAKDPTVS
# Assay: inhibition of MG132-induced HSE-luciferase signal, confirmation, cell-based, NIH3T3, luminescence, dose retest (AID 2382);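 note: NIH3T3 fibroblasts with HSF1-driven luciferase reporter stressed by proteasome inhibitor MG132; luminescence from HSF1-driven luciferase expression after 8 hours of MG132 stress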
# Assay type: functional
# Conditions: not given
row,SMILES,EC50
1,CC1(C)CC(=O)c2cc(OCC(=O)N3CCN(c4ccccc4F)CC3)ccc2O1,> 195 µM (not active)
2,C1CCC(Nc2nnnn2C2CCCCC2)CC1,> 195 µM (not active)
3,CC(C)c1ccc(NC2(C#N)C(=O)Nc3ccccc32)cc1 (stereo not given),> 195 µM (not active)
4,O=C(COC(=O)c1ccccc1SCC(=O)N1CCCC1)NC1CCS(=O)(=O)C1 (stereo not given),> 195 µM (not active)
5,CC1CCCCN1CC(=O)Nc1ccccc1Sc1ccccc1 (stereo not given),> 195 µM (not active)
6,CCOc1ccc(N2CSC(=S)N(c3ccc(OCC)cc3)C2)cc1,> 195 µM (not active)
7,CCCCNc1nc2cccnc2s1,> 195 µM (not active)
8,CC(=O)C1C(=O)c2c(cccc2[N+](=O)[O-])/C1=N\c1ccc(S(N)(=O)=O)cc1 (stereo not given),> 195 µM (not active)
9,O=C(O)c1cccc(NC(=S)N/N=C/c2cccnc2)c1,> 195 µM (not active)
10,COc1ccc(CN2/C(=N/C(=O)CCC3CCCC3)SC3CS(=O)(=O)CC32)cc1 (stereo not given),> 195 µM (not active)

# Continued, values first:
row,EC50,SMILES
1,6.93 µM (active),CCc1nc2ccc(C(=O)O)cc2nc1CC
2,> 195 µM (not active),O=C(COC(=O)C1=COCCO1)Nc1ccc2c(c1)OCO2
3,> 195 µM (not active),CC(C)(C)c1ccc(OC(=O)c2cccnc2)cc1
4,26 µM (active),CN(C)S(=O)(=O)c1ccc(C(=O)OCCCNC2=NS(=O)(=O)c3ccccc32)cc1
5,> 195 µM (not active),CCN(CC)C(=O)COC(=O)c1ccc(C)c(NC(=O)c2ccco2)c1
6,> 195 µM (not active),Cc1cccc(-c2nnc(NC(=O)c3cccs3)s2)c1
7,45.5 µM (active),CC1CCN(S(=O)(=O)c2ccc(C(=O)Nc3nnc(-c4ccccn4)o3)cc2)CC1

# Target: Cytochrome P450 3A4 (Homo sapiens, UniProt P08684);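 note: CYP3A4 tested as one member of a cytochrome P450 panel screen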
# Conditions: not given
# Sequence of Cytochrome P450 3A4 (P08684 whole entry): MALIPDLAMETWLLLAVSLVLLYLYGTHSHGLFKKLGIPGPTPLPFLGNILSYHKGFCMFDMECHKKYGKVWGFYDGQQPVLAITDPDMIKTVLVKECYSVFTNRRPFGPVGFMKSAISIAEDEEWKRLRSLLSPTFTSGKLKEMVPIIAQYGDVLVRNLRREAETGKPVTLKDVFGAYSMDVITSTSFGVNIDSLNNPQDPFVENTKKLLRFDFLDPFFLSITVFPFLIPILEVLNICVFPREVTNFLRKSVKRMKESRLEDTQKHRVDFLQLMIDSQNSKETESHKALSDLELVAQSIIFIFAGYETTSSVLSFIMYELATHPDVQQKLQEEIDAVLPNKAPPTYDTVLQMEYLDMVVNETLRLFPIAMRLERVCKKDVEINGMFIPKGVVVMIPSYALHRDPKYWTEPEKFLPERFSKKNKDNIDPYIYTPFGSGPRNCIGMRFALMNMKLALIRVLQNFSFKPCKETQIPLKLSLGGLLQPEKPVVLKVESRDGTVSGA
row,SMILES,AC50
1,Cc1c([C@@H](C)[C@H]2NC[C@H](C)C[C@@H]2O)ccc2c1C[C@@H]1[C@H]2CC=C2C[C@@H](O)CC[C@@]21C,3.16 µM (inconclusive)
2,CCCNC(=O)OC[C@@H]1O[C@H](CCO/N=C\c2ccc(C(=O)N3[C@H](c4ccc(C)cc4)[C@@H](C)CC[C@H]3C(=O)OC)cc2)C=C[C@@H]1Oc1ccc(OC)cc1,3.16 µM (inconclusive)
3,C[n+]1c(/C=C/c2ccc(O)c3ncccc23)[se]c2ccccc21,3.98 µM (inconclusive)

# The next lines start with the values.
row,AC50,SMILES
1,0.398 µM (inconclusive),COC(=O)CCC(=O)Nc1cccc(C(=O)Nc2cccc(Cl)c2)c1
2,12.6 µM (inconclusive),Cc1ccc(C)c(C(=O)CN2C3=NCCCN3c3ccccc32)c1
3,12.6 µM (inconclusive),O=C(NCC1CCCO1)c1ccc2c(=O)n(Cc3ccco3)c(SCC(=O)N3CCCC3)nc2c1 (stereo not given)

# Target: Cytochrome P450 2C9 (Homo sapiens, UniProt P11712)
# Conditions: not given
# Sequence of Cytochrome P450 2C9 (P11712 whole entry): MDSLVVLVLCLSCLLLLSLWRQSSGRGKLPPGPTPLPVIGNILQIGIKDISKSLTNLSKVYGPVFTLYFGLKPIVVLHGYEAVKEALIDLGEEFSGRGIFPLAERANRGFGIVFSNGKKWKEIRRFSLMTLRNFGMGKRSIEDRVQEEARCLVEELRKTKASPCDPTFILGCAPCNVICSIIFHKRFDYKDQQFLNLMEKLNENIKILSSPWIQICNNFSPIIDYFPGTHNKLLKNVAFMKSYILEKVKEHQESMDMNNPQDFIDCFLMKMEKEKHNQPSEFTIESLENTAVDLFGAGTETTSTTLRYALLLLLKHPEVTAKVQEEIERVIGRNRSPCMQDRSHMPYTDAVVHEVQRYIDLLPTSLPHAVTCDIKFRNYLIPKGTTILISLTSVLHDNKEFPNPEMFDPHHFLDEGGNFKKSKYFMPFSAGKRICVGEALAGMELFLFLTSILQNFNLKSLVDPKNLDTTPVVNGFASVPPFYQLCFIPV
row,AC50,SMILES
1,12.6 µM (inconclusive),Cc1ccc2nc(-c3ccccc3)c(CN(C)C)c(O)c2c1
2,17.8 µM (inconclusive),O=C(O)/C=C/c1cn(-c2ncc(C(F)(F)F)cc2Cl)c2ccccc12

row,SMILES,AC50
1,C[n+]1c(/C=C/c2ccc(O)c3ncccc23)[se]c2ccccc21,6.31 µM (inconclusive)

# Target: Cytochrome P450 2D6 (Homo sapiens, UniProt P10635);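 note: CYP2D6 member of a cytochrome P450 panel assay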
# Conditions: not given
# Sequence of Cytochrome P450 2D6 (P10635 whole entry): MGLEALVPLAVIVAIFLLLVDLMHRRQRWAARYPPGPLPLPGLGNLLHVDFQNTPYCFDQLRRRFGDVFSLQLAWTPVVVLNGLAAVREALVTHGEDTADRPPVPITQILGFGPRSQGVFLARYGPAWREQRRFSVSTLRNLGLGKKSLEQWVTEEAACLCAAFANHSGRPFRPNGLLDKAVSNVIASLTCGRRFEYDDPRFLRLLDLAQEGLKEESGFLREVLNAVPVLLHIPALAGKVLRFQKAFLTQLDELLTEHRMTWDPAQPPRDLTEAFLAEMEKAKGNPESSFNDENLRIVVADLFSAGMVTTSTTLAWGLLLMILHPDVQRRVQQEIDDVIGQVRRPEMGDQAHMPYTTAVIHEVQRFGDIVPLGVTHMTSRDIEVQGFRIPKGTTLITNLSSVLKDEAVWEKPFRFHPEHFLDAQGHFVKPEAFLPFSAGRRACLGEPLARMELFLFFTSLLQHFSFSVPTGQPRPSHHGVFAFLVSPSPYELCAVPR
row,AC50,SMILES
1,22.4 µM (inconclusive),COC(=O)CCC(=O)Nc1cccc(C(=O)Nc2cccc(Cl)c2)c1

# Target: T2, Cytochrome P450 1A2 (Homo sapiens, UniProt P05177);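 note: PubChem cytochrome P450 panel assay, CYP1A2 panel member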
# T2 sequence (P05177 whole entry): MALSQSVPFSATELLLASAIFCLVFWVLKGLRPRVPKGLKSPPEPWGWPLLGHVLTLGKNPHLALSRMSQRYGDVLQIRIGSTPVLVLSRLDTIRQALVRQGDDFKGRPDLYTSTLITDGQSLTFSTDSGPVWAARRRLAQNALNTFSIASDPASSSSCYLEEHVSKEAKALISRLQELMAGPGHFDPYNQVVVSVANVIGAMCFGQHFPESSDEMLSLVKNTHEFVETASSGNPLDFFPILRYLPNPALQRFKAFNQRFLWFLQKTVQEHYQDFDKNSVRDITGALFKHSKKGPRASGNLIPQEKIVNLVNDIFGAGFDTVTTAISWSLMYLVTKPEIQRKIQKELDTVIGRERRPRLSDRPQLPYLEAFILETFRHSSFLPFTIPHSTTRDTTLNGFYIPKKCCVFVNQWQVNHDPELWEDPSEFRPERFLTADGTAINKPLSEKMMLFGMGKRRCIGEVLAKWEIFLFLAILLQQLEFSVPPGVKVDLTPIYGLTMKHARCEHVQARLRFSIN
# Conditions: not given
row,AC50,SMILES
1,15.8 µM (inconclusive),Cc1ccc2nc(-c3ccccc3)c(CN(C)C)c(O)c2c1
2,35.5 µM (inconclusive),O=C(O)/C=C/c1cn(-c2ncc(C(F)(F)F)cc2Cl)c2ccccc12
